Assay: in vitro
Conditions: human, hela cells

Row | Structure (SMILES) | viability at 28.5 h, 10 µM (% viability) | also measured
1 | COc1ccc(-n2nc3cc(C)c(NC(=S)NC(=O)c4oc5ccccc5c4C)cc3n2)cc1 [CBK264188] | 103% | 
2 | Cc1nc(SCc2cccc(C(=O)O)c2)nc2c1CCCC2 [CBK266997] | 87.3% | 
3 | CC(=O)[C@H]1C[C@@H](CC(=O)N2CCN(c3ccc(C(F)(F)F)cc3)CC2)C1(C)C [CBK091330] | 93.6% | 
4 | CCNC(=O)N1CC2(CCN(CCOCC)CC2)c2ccccc21 [CBK136972] | 90.5% | 
5 | Cc1nc2cc(C(=O)O)ccc2n1CCO [CBK260949] | 106% | 
6 | COc1ccc(Oc2cncc(OC3CCN(CC(N)=O)C3)n2)cc1OC (centres unmarked) [CBK084402] | 93.8% | 
7 | Cc1ccccc1Nc1nc(N)nc(CN2CCCC(C(F)(F)F)C2)n1 (centres unmarked) [CBK305073] | 105% | 
8 | CN1CCN(c2nccnc2-c2ccco2)CC1 [CBK038050] | 86.7% | 
9 | Cc1ccc(NC(=O)c2cc(N3C(=O)c4ccc(C(=O)O)cc4C3=O)ccc2N2CCCCC2)cc1 [CBK265274] | 99.9% | 
10 | Cc1ccc(S(=O)(=O)Nc2c(C(=O)O)sc3ncccc23)cc1[N+](=O)[O-] [CBK049983] | 91.6% | 
11 | OCCN1CCN(C2CCN(Cc3ccccc3Cl)CC2)CC1 [CBK264710] | 90.1% | 
12 | CCCN1CCC(N(C)CCN(CC)CC)CC1 [CBK261935] | 104% | 
13 | CC(C)N1CCC[C@H]1c1nc(-c2ccc(-c3cncnc3)nc2)no1 [CBK288892] | 115% | 
14 | S=c1[nH]nc(Cn2ccc(-c3ccccc3)n2)o1 [CBK022019] | 108% | 
15 | Brc1ccc(-n2cnnn2)cc1 [CBK027696] | 110% | 
16 | CC(=O)c1c(C)[n+]([O-])c2cc(Cl)c(Cl)cc2[n+]1[O-] [CBK265017] | 108% | 
17 | COc1ccccc1-c1cc(Nc2ccc(N3CCOCC3)cc2)ncn1 [CBK090933] | 83.7% | 
18 | c1ccc([C@@H]2CN(CC3CCOC3)C[C@H]2c2cc[nH]n2)cc1 (some centres unmarked) [CBK285163] | 110% | 
19 | O=C(CN1CCCCC1)N1CCCC1c1nc2ccccc2[nH]1 (centres unmarked) [CBK283935] | 104% | 
20 | CCCC/C=C/c1cncc(Nc2ccccc2)n1 [CBK037942] | 103% | 
21 | C=CCN1C(=O)C2(CC(=O)N(Cc3ccccc3)C2=O)c2cc(OC)ccc21 (centres unmarked) [CBK075281] | 103% | 
22 | CN(Cc1cccc(Oc2ccccc2)c1)Cc1cccc2ccccc12 [CBK261857] | 96.9% | 
23 | CC(C)c1noc(C(C)N2CCN(Cc3noc(C(C)(C)C)n3)CC2)n1 (centres unmarked) [CBK305202] | 84.4% | 

Row | Structure (SMILES) | viability at 28.5 h, 10 µM (% viability) | also measured
24 | O=C(CN1CCC(c2ccccc2F)CC1)N1CCOCC1 [CBK283548] | 89.3% | 
25 | Cc1cnc(CNC(=O)N2CCN(c3ccc(F)cc3)CC2)cn1 [CBK156392] | 93.7% | 
26 | Cc1ccc(C(=O)Nc2cccc(-n3c(C)nc4ccccc4c3=O)c2)cc1 [CBK287725] | 104% | 
27 | NC(=O)Cn1cc(C(=O)c2ccncc2)c(=O)c2cc(Cl)ccc21 [CBK288584] | 86% | 
28 | O=C(CN1C(=O)COc2ccccc21)NC1CC1 [CBK270261] | 96% | 
29 | CC1CCc2c(sc(NC(=O)c3cnccn3)c2C(N)=O)C1 (centres unmarked) [CBK265466] | 90.7% | 
30 | Cc1cc(-c2csc(CC(C)n3cc(Cl)cn3)n2)on1 (centres unmarked) [CBK304700] | 91.3% | 
31 | Oc1ccc(CN2CCN(c3ccc(F)cc3)CC2)c2cccnc12 [CBK267985] | 117% | 
32 | O=c1cc(N2CCN(c3ccccc3)CC2)[nH]c(=O)n1-c1ccccc1Cl [CBK287506] | 101% | 
33 | Cc1ccccc1-n1ncc2c(=O)n(Cc3ccccc3)cnc21 [CBK287690] | 96.9% | 
34 | O=C(COc1ccc(F)cc1)N1CCC2(CCNC2)C1 (centres unmarked) [CBK156691C] | 92.5% | 
35 | O=C(Cn1cnc2c(oc3ccccc32)c1=O)Nc1ccc2c(c1)OCO2 [CBK287557] | 118% | 
36 | C#CCNC(=O)N(C)C1CCN(c2ncnc3ccccc23)CC1 [CBK306109] | 97.6% | 
37 | N=c1n(CCN2CCOCC2)c2ccccc2n1CC(O)c1cccs1 (centres unmarked) [CBK262895C] | 99.1% | 
38 | O=C(CC1SC(NC2CC3C=CC2C3)=NC1=O)NCc1ccccc1 (centres unmarked) [CBK049940] | 87.1% | 
39 | COc1cc(F)ccc1-c1nc2ncccc2cc1NS(C)(=O)=O [CBK085692] | 89% | 
40 | CCCC(=O)N1CCCC(c2nnc(-c3cccs3)o2)C1 (centres unmarked) [CBK283057] | 83.6% | 
41 | O=C(O)CCC(=O)NNC(=O)c1ccc(O)cc1 [CBK261353] | 105% | 
42 | Cc1c([N+](=O)[O-])c([N+](=O)[O-])nn1CC(=O)NCc1cccnc1 [CBK262428] |  | viability at 28.5 h, 10 µM (% viability, bulk resorufin, single well): 97.2%
43 | Cc1cc(C)n(CCCC(=O)NCCc2cn3ccccc3n2)n1 [CBK304414] | 94.6% | 
44 | CC(C)CCc1c(O)nc(SCCN(C)C)[nH]c1=O [CBK263382] | 95.3% | 
45 | O=C(O)CSc1nc2nc3c(cc2c(=O)n1Cc1ccccc1)CCCC3 [CBK286662] | 86.4% | 
46 | Nc1ncc(CCCN2CCOCC2)c(N)n1 [CBK025981] | 125% | 

Row | Structure (SMILES) | viability at 28.5 h, 10 µM (% viability) | also measured
47 | COc1cc(-c2nccnc2N(C)Cc2ccccc2)cc(OC)c1OC [CBK037424] | 96.5% | 
48 | COc1ccc(-c2c(O)n[nH]c2CCC2CCCC2)cc1 [CBK075126] | 88.1% | 
49 | CC(NS(=O)(=O)c1ccc(CCC(=O)N2CCN(C)CC2)cc1)c1ccccc1 (centres unmarked) [CBK266868] | 91.7% | 
50 | CC(C)NC(=O)N1CCN2C(=O)c3cc(-c4ccc(Cl)cc4)ccc3NC(=O)[C@H]2C1 [CBK289596] | 79.5% | 
51 | CC1CCN(Cc2ccc(-c3ccc(CNC(=O)c4ccc5c(c4)OC(F)(F)O5)s3)cc2)CC1 [CBK166113] | 107% | 
52 | O=C(NCc1cccs1)c1cc(S(=O)(=O)N2CCOCC2)c(Cl)cc1Cl [CBK269657] | 97.3% | 
53 | CN(C)CCN(Cc1cccs1)Cc1cc(Cl)ccc1O [CBK282847] | 86.2% | 
54 | COc1ccc(/C=C/C2=CCN(C)CC2)cc1Cn1cccn1 [CBK283859] | 90.8% | 
55 | CC1CCc2c(sc(NC(=O)Cn3cnc([N+](=O)[O-])n3)c2C(N)=O)C1 (centres unmarked) [CBK263064] | 91.3% | 
56 | N#CC(c1ccc(O)cc1)N1CCCCC1 (centres unmarked) [CBK028556] | 94.4% | 
57 | CCOc1cccc2sc(Nc3nc4ccc(NC(C)=O)cc4s3)nc12 [CBK287474] | 90.8% | 
58 | O=C(CN1CCC(c2ccc(F)cc2)CC1)NCc1ccco1 [CBK283641] | 94.9% | 
59 | O=P(O)(O)CCCc1ccccc1 [CBK012021] |  | viability at 28.5 h, 10 µM: 80.5%
60 | O=c1[nH]c2ncc(-c3cccc(CO)c3)nc2n1CC1CC1 [CBK065088] | 63.9% | 
61 | Cc1[nH]nc(Nc2ccc(I)cc2)c1[N+](=O)[O-] [CBK262748] | 86.2% | 
62 | COc1ccc(CN(C(=O)CCN2C(=O)c3ccccc3S2(=O)=O)c2ccccc2O)cc1 [CBK265973] | 99.4% | 
63 | CCc1nc2ccc(C(=O)Nc3ccc(Cl)c(Cl)c3)cn2c1N(CC)CCOC [CBK146042] | 94% | 
64 | COC(=O)c1ccc(-c2ccc(Cl)c(Cl)c2)nc1 [CBK149231] | 101% | 
65 | COc1ccc(Cl)cc1N1CCN(CC2CCCCC2)CC1 [CBK138336] | 77.8% | 
66 | CCNc1nccnc1-c1ccncc1 [CBK088586] | 119% | 
67 | NC(=O)c1c(NC(=O)c2cnn3cccnc23)sc2c1CCCC2 [CBK268437] | 87.8% | 
68 | CN1CCN(S(=O)(=O)c2ccc(-c3cnc(N)c(-c4ccc(O)cc4)n3)cc2F)CC1 [CBK131449] | 93.9% | 
69 | COc1ccc(-c2nccnc2N[C@@H](CO)C(C)C)cc1 [CBK089040] | 98.5% | 

Row | Structure (SMILES) | viability at 28.5 h, 10 µM (% viability) | also measured
70 | CCOC(=O)c1[nH]c2ccccc2c1NC(=O)CS(=O)(=O)c1ccc(C)cc1 [CBK160162] | 94.3% | 
71 | CCCn1c(SC(C)C(=O)N2CCOCC2)nc2ccc(Br)cc2c1=O (centres unmarked) [CBK305020] | 92.2% | 
72 | CCc1cc(=O)[nH]c(-c2ccc(N3CCOCC3C)nc2)n1 (centres unmarked) [CBK305532] | 95.7% | 
73 | CCCC1=NNC(=O)C1Cc1c(F)cccc1Cl (centres unmarked) [CBK067753] | 88.8% | 
74 | Cc1nn(C)c(N2CCNCC2)c1NC(=O)c1cnccn1 [CBK050308T] | 86.3% | 
75 | OCCN(Cc1cccs1)Cc1c[nH]nc1-c1cccs1 [CBK282599] | 86% | 
76 | CC1=NN(c2ccccc2)C(=O)/C1=C\c1ccc(Cl)cc1 [CBK067772] | 96.7% | 
77 | O=C(NC(Cc1cnc[nH]1)C(=O)O)c1ccccc1 (centres unmarked) [CBK059018] | 102% | 
78 | CN1CCN(C)C(COc2nccc(C(F)(F)F)n2)C1 (centres unmarked) [CBK113298] | 95.2% | 
79 | COc1cccc(OCC(=O)O/N=C(\N)c2ccncc2)c1 [CBK262592] | 91.6% | 
80 | O=C(CC1CC1)Nc1cc(-c2ccncc2)c[nH]c1=O [CBK116585] | 91.9% | 
81 | Nc1ccc(/C=C/c2cccc(C(=O)O)n2)cc1 [CBK267711] | 89.7% | 
82 | Cc1c(C(=O)N(C)Cc2nc3ccccc3s2)nnn1C1CCNCC1 [CBK306501C] | 85.9% | 
83 | CC(C)(C)C(=O)NC(c1nccs1)C1CCN(C(=O)C2CC2)CC1 (centres unmarked) [CBK284678] | 88.8% | 
84 | CCN(CCO)C(=O)NC1CCCc2c1cnn2Cc1ccccc1 (centres unmarked) [CBK305277] | 91.5% | 
85 | COCCn1cc(C(=O)N2CCCC2c2ccncc2)c2ccccc21 (centres unmarked) [CBK305286] | 91.8% | 
86 | Cc1nc(-c2ccc(CNC(=O)c3cc(=O)[nH]c4ccccc34)o2)cs1 [CBK238261] | 79.2% | 
87 | Cc1ccc(-n2ncc3c(=O)n(CC(=O)N4CCCCC4)cnc32)cc1 [CBK287532] | 101% | 
88 | FC(F)(F)c1ccc(OCCN2CCNCC2)nc1 [CBK113462] | 110% | 
89 | CN(C)CCN(Cc1ccccc1)Cc1ccc(C(F)(F)F)cc1 [CBK261927] | 120% | 
90 | O=c1[nH]cc([C@@H]2O[C@H](CO)[C@H](O)C2O)c(=O)[nH]1 (some centres unmarked) [CBK201172] | 103% | 
91 | CCCc1nn(CC(=O)N(CC)CC)c(=O)c2cc3ccsc3n12 [CBK284192] | 81.3% | 
92 | CC1(c2ccccc2)NC(NC2CCCCC2)=NC1=O (centres unmarked) [CBK008081] | 97.3% | 

Reference: publication PMC12040169 (PLOS Biology, 2025)
